Results: the supplement of paper PMC13380429

Columns and labels:
Conditions in all cases: 72 h
Caco-2 [1] = experiment: cell viability relative to DMSO; higher = less toxic
Calu-3 [2] = experiment: as above
HepG2 [3] = experiment: as above
U2OS [4] = experiment: as above
Vero E6 [5] = experiment: as above
Caco-2 [6] = experiment: relative viability EC50 (midpoint between 100% and the lowest measured viability); higher = less toxic
Calu-3 [7] = experiment: as above
HepG2 [8] = experiment: as above
U2OS [9] = experiment: as above
Vero E6 [10] = experiment: as above
Caco-2 [11] = experiment: drug sensitivity score (DSS) for viability; higher = more toxic; extreme values may be limits of the assay
Calu-3 [12] = experiment: as above
HepG2 [13] = experiment: as above
U2OS [14] = experiment: as above
Vero E6 [15] = experiment: as above

SMILES	cell viability (Caco-2 [1]; 1 nM)	cell viability (Caco-2 [1]; 10 nM)	cell viability (Caco-2 [1]; 100 nM)	cell viability (Caco-2 [1]; 1000 nM)	cell viability (Caco-2 [1]; 10000 nM)	cell viability (Calu-3 [2]; 1 nM)	cell viability (Calu-3 [2]; 10 nM)	cell viability (Calu-3 [2]; 100 nM)	cell viability (Calu-3 [2]; 1000 nM)	cell viability (Calu-3 [2]; 10000 nM)	cell viability (HepG2 [3]; 1 nM)	cell viability (HepG2 [3]; 10 nM)	cell viability (HepG2 [3]; 100 nM)	cell viability (HepG2 [3]; 1000 nM)	cell viability (HepG2 [3]; 10000 nM)	cell viability (U2OS [4]; 1 nM)	cell viability (U2OS [4]; 10 nM)	cell viability (U2OS [4]; 100 nM)	cell viability (U2OS [4]; 1000 nM)	cell viability (U2OS [4]; 10000 nM)	cell viability (Vero E6 [5]; 1 nM)	cell viability (Vero E6 [5]; 10 nM)	cell viability (Vero E6 [5]; 100 nM)	cell viability (Vero E6 [5]; 1000 nM)	cell viability (Vero E6 [5]; 10000 nM)	relative viability EC50 (Caco-2 [6])	relative viability EC50 (Calu-3 [7])	relative viability EC50 (HepG2 [8])	relative viability EC50 (U2OS [9])	relative viability EC50 (Vero E6 [10])	drug sensitivity score (Caco-2 [11])	drug sensitivity score (Calu-3 [12])	drug sensitivity score (HepG2 [13])	drug sensitivity score (U2OS [14])	drug sensitivity score (Vero E6 [15])
CC(C)(C)C(=O)OCOC(=O)[C@@H]1N2C(=O)[C@@H](/N=C/N3CCCCCC3)[C@H]2SC1(C)C [pivmecillinam]	88.8%	92.9%	93.3%	90.7%	97.2%	90.9%	93.1%	97.9%	94.9%	112%	94.7%	92.7%	96.1%	95.5%	91.9%	102%	99.8%	103%	98.9%	104%	106%	102%	96.6%	104%	92.8%	> 10 µM	> 10 µM	> 10 µM	> 10 µM	> 10 µM	0	0	0	0	0
O=c1[nH]c(=O)n([C@H]2C[C@H](O)[C@@H](CO)O2)cc1F [floxuridine]	88.4%	62%	42%	29.9%	44.6%	101%	85.1%	93.6%	88.9%	89%	109%	66.2%	59.4%	50%	43.1%	95.3%	99.9%	101%	105%	82.6%	97.2%	91.8%	74.6%	53.6%	42.2%	0.0088 µM	> 10 µM	0.0144 µM	> 10 µM	0.134 µM	24.9	0.5	19	0.3	11.8
CCCCCCCCCCCCC[N+](C)(C)Cc1ccccc1 [benzalkonium]	102%	102%	110%	108%	19.5%	104%	98.9%	97%	98.8%	37.3%	96.1%	108%	102%	116%	22.9%	97.7%	91.8%	102%	92.9%	13.7%	89%	101%	96.1%	105%	92.4%	3.62 µM	3.02 µM	3.95 µM	2.49 µM	> 10 µM	3.9	3.6	3.4	5.9	0
O=C(O)CC(S)C(=O)O (stereo not given) [mercaptosuccinic-acid]	94%	106%	91.2%	95.7%	99.7%	102%	101%	93.5%	94.7%	97.7%	93.1%	93.7%	94.9%	96.3%	92.7%	103%	104%	94.3%	102%	96.2%	96.1%	99.8%	96.8%	97.4%	99.3%	> 10 µM	> 10 µM	> 10 µM	> 10 µM	> 10 µM	0	0	0	0	0
CCCCOCCOc1nc(-c2ccc(C(=O)O)c(F)c2)sc1C	94.1%	97.2%	94.6%	100%	82%	109%	104%	109%	89.8%	84.8%	97.5%	104%	105%	102%	102%	103%	102%	96.5%	89.6%	90.1%	100%	99.7%	97.5%	99.9%	90.8%	> 10 µM	> 10 µM	> 10 µM	> 10 µM	> 10 µM	0.4	1	0	0.1	0
CCC1(c2ccccc2)C(=O)NCNC1=O [primidone]	93.1%	100%	84.5%	101%	115%	102%	94.8%	105%	94.1%	114%	112%	78.9%	89.4%	84.9%	96.3%	102%	98.3%	101%	102%	107%	94.5%	95.1%	92%	92.2%	95.3%	> 10 µM	> 10 µM	> 10 µM	> 10 µM	> 10 µM	0	0	0.2	0	0
O=C(O)c1ccc(O)c2ncccc12 [IOX1]	89%	97.7%	97.6%	104%	102%	97.6%	99.5%	98.2%	105%	86.7%	110%	90.1%	87.4%	101%	94.7%	99.9%	100%	100%	103%	99.7%	98%	92.3%	103%	101%	106%	> 10 µM	> 10 µM	> 10 µM	> 10 µM	> 10 µM	0	0	0	0	0
CC(C)c1c(NC(=O)Nc2ccc(Cl)cc2)c(=O)n(-c2ccccc2)n1C [TC-FPR-43]	98.8%	105%	102%	98.6%	99.2%	106%	102%	100%	105%	96.5%	90.9%	105%	101%	94.3%	94.5%	97.1%	103%	99.3%	107%	93.2%	96.7%	96.8%	94.2%	96.9%	92.4%	> 10 µM	> 10 µM	> 10 µM	> 10 µM	> 10 µM	0	0	0	0	0
CCC(C)n1ncn(-c2ccc(N3CCN(c4ccc(OCC5COC(Cn6cncn6)(c6ccc(Cl)cc6Cl)O5)cc4)CC3)cc2)c1=O (stereo not given) [itraconazole]	103%	101%	111%	99.7%	97.2%	91.1%	102%	101%	104%	98.6%	92.7%	94.9%	101%	92.7%	97.6%	92.1%	99.5%	93.9%	102%	109%	92.9%	87.4%	87.2%	87.9%	108%	> 10 µM	> 10 µM	> 10 µM	> 10 µM	> 10 µM	0	0	0	0	0
O=C(Nc1ccccc1-c1cn2c(CN3CCNCC3)csc2n1)c1cnc2ccccc2n1 [SRT1720]	88.6%	93.3%	99.7%	98.4%	5.4%	102%	101%	103%	102%	0.9%	94%	94.4%	102%	91.6%	0.3%	102%	99.7%	98.1%	102%	0.2%	98.2%	97.7%	97.7%	94.3%	0.1%	3.05 µM	3.3 µM	2.47 µM	3.3 µM	2.72 µM	5.5	5.3	6.9	5.4	6.4
N#Cc1ccccc1-c1cc(-c2ccccn2)cn(-c2ccccc2)c1=O [Perampanel]	90.5%	106%	97.5%	93.6%	104%	90.5%	97.5%	96.5%	103%	95.6%	98.7%	108%	104%	105%	119%	94%	94%	99.6%	96.2%	99.7%	92.1%	101%	95.4%	96.9%	92.4%	> 10 µM	> 10 µM	> 10 µM	> 10 µM	> 10 µM	0	0	0	0	0
CCCC(=O)N1CCCN(c2nc(N)c3cc(OC)c(OC)cc3n2)CC1 [bunazosin]	108%	96.4%	101%	101%	99.7%	102%	101%	105%	92%	115%	94.7%	99.3%	103%	94.3%	99.3%	95.4%	103%	101%	96.7%	98.2%	104%	105%	102%	99.3%	97.3%	> 10 µM	> 10 µM	> 10 µM	> 10 µM	> 10 µM	0	0	0	0	0
COc1nc(N)nc2c1ncn2[C@@H]1O[C@H](CO)[C@@H](O)[C@@H]1O [nelarabine]	97.3%	98%	101%	98.6%	104%	115%	101%	94.8%	92.3%	107%	105%	104%	105%	95.9%	109%	103%	97.5%	98.5%	95.6%	102%	97.4%	97.3%	99.5%	97.6%	98.5%	> 10 µM	> 10 µM	> 10 µM	> 10 µM	> 10 µM	0	0	0	0	0
NC(=O)CCCCn1ccc(/N=C(\N)NCC(F)(F)F)n1	98.8%	97.8%	104%	92.6%	97.6%	110%	96.5%	107%	99.4%	102%	103%	97.7%	98.1%	105%	105%	98.8%	104%	104%	99.9%	99.5%	106%	103%	104%	102%	99.7%	> 10 µM	> 10 µM	> 10 µM	> 10 µM	> 10 µM	0	0	0	0	0
